Numbering of substitutions follows the chain as printed. pIC50: −log10 of the molar value. Where two headings read alike, the source gives them in different places.
How the values were obtained:
[1] = target: T1, mutant T877A-AR (pSG5AR-T877A) transfected COS-7 cells (Homo sapiens, UniProt P10275, T878A); format: cell-based
T1 construct: pSG5-AR with full-length cDNA of human WT-AR; expressed in transfected cells; host or cells: COS-7
T1 sequence (P10275 1-920 T878A): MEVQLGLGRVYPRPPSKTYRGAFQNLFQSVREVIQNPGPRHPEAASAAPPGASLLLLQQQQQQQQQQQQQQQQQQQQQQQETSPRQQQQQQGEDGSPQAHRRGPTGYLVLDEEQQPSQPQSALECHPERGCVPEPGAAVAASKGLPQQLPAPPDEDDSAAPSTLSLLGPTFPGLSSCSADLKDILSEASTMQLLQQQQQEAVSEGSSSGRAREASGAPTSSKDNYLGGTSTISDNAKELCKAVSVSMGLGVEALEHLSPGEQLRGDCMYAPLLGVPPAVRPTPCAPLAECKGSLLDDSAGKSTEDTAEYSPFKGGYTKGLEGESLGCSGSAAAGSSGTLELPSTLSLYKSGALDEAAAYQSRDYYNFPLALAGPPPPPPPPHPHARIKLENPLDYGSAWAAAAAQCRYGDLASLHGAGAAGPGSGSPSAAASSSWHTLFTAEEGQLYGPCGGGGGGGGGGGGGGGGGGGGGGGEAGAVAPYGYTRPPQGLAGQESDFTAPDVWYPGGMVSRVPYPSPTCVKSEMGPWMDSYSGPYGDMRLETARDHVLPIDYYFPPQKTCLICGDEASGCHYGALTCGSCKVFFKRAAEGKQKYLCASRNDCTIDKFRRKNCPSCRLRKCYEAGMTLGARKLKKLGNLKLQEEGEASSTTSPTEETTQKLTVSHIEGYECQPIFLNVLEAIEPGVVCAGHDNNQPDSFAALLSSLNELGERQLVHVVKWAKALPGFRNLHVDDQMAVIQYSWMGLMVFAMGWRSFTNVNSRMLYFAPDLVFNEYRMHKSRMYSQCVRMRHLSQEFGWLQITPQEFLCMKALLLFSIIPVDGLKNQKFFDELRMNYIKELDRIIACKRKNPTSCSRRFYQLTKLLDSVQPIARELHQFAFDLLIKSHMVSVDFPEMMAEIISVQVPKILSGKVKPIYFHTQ
Excerpt: (§1) Prostate. Jun. 1, 2011; 71(8):872-880.), progesterone receptor (pSG5-PR-alpha, pSG5-pPRbeta, PR), glucocorticoid (pCMV5-hGR-alpha, GR) and mineralocorticoid receptors (pRShMR, MR), estrogen receptors (pCMV5-ER-alpha, pCMV5-ER-beta, ER). T877A-AR was generated by site-directed mutagenesis as described in Andrieu T, Bertolini R, Nichols S E, et al. A novel steroidal antiandrogen targeting wild type and mutant androgen receptors. Biochem Pharmacol. Dec. 1, 2011; 82(11):1651-1662. Cells seeded on 6-well plates (density: 5×10^5/well) were transfected 96 h later with 1 μg of empty (pcDNA3) or human AR encoding plasmids using 3 μl of FuGENE-HD transfection reagent (Roche, Rotkreuz, Switzerland). One day after transfection the medium was changed to 2% charcoal treated (CT) FBS containing medium.
Then cells were washed with ice cold PBS. Collected medium and PBS were considered as the unbound fraction. Cells were incubated for 5 min in glycine buffer 50 mM (pH 2.8), washed with PBS (membrane fraction) and lysed with RIPA buffer (Sigma, R0278) (cellular fraction). The radioactivity was measured by gamma counting. Cellular uptake of radioactivity was corrected by the protein amount (BCA assay, Pierce).

[2] = target: T2, human WT-AR (Homo sapiens, UniProt P10275); experiment: Whole cell competitive binding assay, WT-AR
T2 construct: pSG5-AR with full-length cDNA of human WT-AR; expressed in transfected cells; host or cells: COS-7
T2 sequence (P10275 1-920): T1 sequence (P10275 1-920 T878A) with A878T
Description: as §1, with “1, 2011; 71(8):872-880.), progesterone receptor (pSG5-PR-alpha, pSG5-pPRbeta, PR), glucocorticoid (pCMV5-hGR-alpha, GR) and mineralocorticoid receptors (pRShMR, MR), estrogen receptors (pCMV5-ER-alpha, pCMV5-ER-beta, ER).” left out, “1, 2011; 82(11):1651-1662.” left out
(§2) In 24 wells 50′000 COS-7 cells were seeded and transfected with 500 ng of receptor encoding plasmids. One day later, cells were washed and cultured in 0.5 ml of phenol-red free DMEM with 2% CT-FBS for another 24 h. […] Supernatant and cells were mixed with scintillation liquid (Irgasafe, Perkin Elmer) and radioactivity counted (Tri-Carb 2000CA, Canberra Packard). The percentage of binding in presence and absence of derivative was calculated relatively to total dpm and results expressed as percentage of binding relative to the ^3H-tracer alone (100%).

[3] = target: T3, T877A-AR (Homo sapiens, UniProt P10275, T878A); experiment: Whole cell competitive binding assay, T877A-AR
T3 construct: pSG5-AR with full-length cDNA of human WT-AR; expressed in transfected cells; host or cells: COS-7
T3 sequence (P10275 1-920 T878A): T1 sequence (P10275 1-920 T878A)
Description: as §1, with “1, 2011; 71(8):872-880.), progesterone receptor (pSG5-PR-alpha, pSG5-pPRbeta, PR), glucocorticoid (pCMV5-hGR-alpha, GR) and mineralocorticoid receptors (pRShMR, MR), estrogen receptors (pCMV5-ER-alpha, pCMV5-ER-beta, ER).” left out, “1, 2011; 82(11):1651-1662.” left out
as §2

[4] = test system: T877A-AR positive C4-2 tumors; experiment: PET/CT imaging, C4-2 tumor bearing mice; format: in vivo, mouse
[5] = test system: PC-3 AR-negative xenografts; experiment: PET/CT imaging, PC-3 tumor bearing mice; format: in vivo, mouse; conditions: 3 h after injection
[6] = Description: (§3) Male SCID-mice (Charles River, Sulzfeld, Germany) were subcutaneously injected with C4-2 and PC-3 cells into both shoulders as previously described (21).
(§4) Images were reconstructed at 0.6 mm thickness using a H31s medium smooth plus kernel. […] For biodistribution studies mice were sacrificed using CO2 after 1-3 h, designated organs and tissues harvested and weighed. Radioactivity was measured in a Gamma-counter (Wizard, Perkin Elmer) and the percentage of injected dose per gram of tissue (% ID/g) calculated.

[7] = test system: T877A-AR positive C4-2 tumors; conditions: 1 h
Description: as §3, §4

[8] = test system: receptor negative PC-3 tumors; conditions: 1 h
Description: as §3, §4

^18F-fluorodeoxyglucose [^18F-FDG]
preferential uptake by transfected cells [1]: did not reveal any preferential uptake
radioactivity after washing procedures [1]: eliminated

C[C@]12CCC(=O)C[C@@H]1CC[C@@H]1[C@@H]2CC[C@]2(C)[C@@H](OC(=O)NCCCF)CC[C@@H]12 [RB390]
pIC50 [2]: 6.45
pIC50 [3]: 7.49
PET signal in C4-2 tumors with unlabelled DHT ([4]; 3 h, excess of unlabelled DHT injected in parallel): nearly full receptor blockade
PET signal in C4-2 tumors ([4]; 3 h after injection): bound specifically
PET signal in PC-3 tumors [5]: remained at background levels

C[C@]12CC[C@H](O)C[C@@H]1CC[C@@H]1[C@@H]2CC[C@]2(C)[C@@H](OC(=O)NCCCF)CC[C@@H]12 [RB448]
pIC50 [2]: 5.66
pIC50 [3]: 7.42
affinity/selectivity for T877A-AR versus WT-AR ([3]; comparison of IC50 values): even more favorable selectivity

C[N+](C)(CF)CCO [^18F-FCH, ^18F-fluorocholine]
preferential uptake by transfected cells ([1]; pcDNA3, WT-AR or T877A-AR transfected COS-7 cells): did not reveal any preferential uptake
radioactivity after washing procedures ([1]; transfected COS-7 cells, washing procedures): eliminated
Bone ([6]; 1 h): 27.99 ± 5.95 % ID/g
Brain ([6]; 1 h): 9.61 ± 2.13 % ID/g
Heart ([6]; 1 h): 76.93 ± 5.18 % ID/g
Intestine ([6]; 1 h): 22.97 ± 4.67 % ID/g
Kidney ([6]; 1 h): 164.72 ± 33.57 % ID/g
Liver ([6]; 1 h): 48.82 ± 7.55 % ID/g
Lung ([6]; 1 h): 97.42 ± 23.21 % ID/g
Muscle ([6]; 1 h): 10.36 ± 2.58 % ID/g
Prostate ([6]; 1 h): 48.26 ± 19.35 % ID/g
Spleen ([6]; 1 h): 66.48 ± 19.45 % ID/g
Testis ([6]; 1 h): 13.58 ± 2.64 % ID/g
route of metabolism/excretion ([6]; tumor bearing SCID-mice): excreted predominantly by the kidney
C4-2 Tumor [7]: 31.62 ± 3.88 % ID/g
PC-3 Tumor [8]: 5.65 ± 1.37 % ID/g

— US20150190534A1, “COMPOUNDS FOR USE AS POSITRON EMISSION IMAGING AGENTS” (UNIVERSITY OF BERN, priority 2014, published 2015)
